Data on 21 compounds can be found in patent EP1083873B1 (MGI GP, Inc., priority 1998, dated 1999).

Sequence of FKBP12 (P62942 whole entry, species assumed): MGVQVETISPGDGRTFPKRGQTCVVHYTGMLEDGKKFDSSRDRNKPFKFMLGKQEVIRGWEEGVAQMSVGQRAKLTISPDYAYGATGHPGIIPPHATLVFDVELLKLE

One test concerns the target FKBP12 (Homo sapiens, UniProt P62942). Nature of the test: Ki test procedure: inhibition of peptidyl-prolyl isomerase (rotamase) activity, chymotrypsin-coupled assay. It counts as biochemical.
Details: not given
An excerpt:
The inhibition of the prolyl peptidyl cis-trans isomerase activity of FKBP may be measured as an indicator of this affinity.
Inhibition of the peptidyl-prolyl isomerase (rotamase) activity of the compounds used in the inventive methods and pharmaceutical compositions can be evaluated by known methods described in the literature (Harding et al., Nature, 1989, 341:758-760; Holt et al. J. Am. Chem. Soc., 115:9923-9938).
The cis-trans isomerization of an alanine-proline bond in a model substrate, N-succinyl-Ala-Ala-Pro-Phe-p-nitroanilide, is monitored spectrophotometrically in a chymotrypsin-coupled assay, which releases paranitroanilide from the trans form of the substrate. The inhibition of this reaction caused by the addition of different concentrations of inhibitor is determined, and the data is analyzed as a change in first-order rate constant as a function of inhibitor concentration to yield the apparent Ki values.
In a plastic cuvette are added […] of ice cold assay buffer (25 mM HEPES, pH 7.8, 100 mM NaCl), 10 mL of FKBP (2.5 mM in 10 mM Tris-Cl pH 7.5, 100 mM NaCl, 1 mM dithiothreitol), […] of chymotrypsin (50 mg/ml in 1 mM HCl) and […] of test compound at various concentrations in dimethyl sulfoxide. The reaction is initiated by the addition of 5 mL of substrate (succinyl-Ala-Phe-Pro-Phe-para-nitroanilide, 5 mg/mL in 2.35 mM LiCl in trifluoroethanol).
The absorbance at 390 nm versus time is monitored for 90 seconds using a spectrophotometer and the rate constants are determined from the absorbance versus time data files.
Compound `O=C(C(=O)N1CCC[C@H]1C(=O)SCCc1ccccc1)C1CCCCC1` [Compound 12] came in with a Ki of 442 nM.

In turn, `O=C(C(=O)N1CCCCC1C(=O)SCCc1ccccc1)c1ccccc1` (stereo not drawn) [Compound 14] gave a Ki of 313 nM.

`CC(C)(C)C(=O)C(=O)N1CCCCC1C(=O)SCCCc1ccccc1` (stereo not drawn) [Compound 29]: the Ki turned out to be 59 nM.

Regarding `O=C(C(=O)N1CCC[C@H]1C(=O)SCCCCc1ccccc1)C1CCCCC1` [Compound 33], the Ki stood at 1700 nM.

In turn, `O=C(C(=O)N1CCC[C@H]1C(=O)SCCCc1cccnc1)C1CCCCC1` [Compound 35] gave a Ki of 62 nM.

Turning to `CC(C)(C)C(=O)C(=O)N1CCCCC1C(=O)SCCCCc1ccccc1` (stereo not drawn) [Compound 39], the Ki stood at 347 nM.

Turning to `COc1ccc(CCCSC(=O)C2CCCCN2C(=O)C(=O)c2ccccc2)cc1` (stereo not drawn) [Compound 43], the Ki turned out to be 259 nM.

`CCC(C)(C)C(=O)C(=O)N1CCCC1C(=O)SCCCC(c1ccc(F)cc1)c1ccc(F)cc1` (stereo not drawn) [Compound 46]: the Ki was determined as 757 nM.

With `CCC(C)(C)C(=O)C(=O)N1CCC[C@H]1C(=O)SCCCc1cccc2ccccc12` [Compound 47], the Ki is 21 nM.

`CCC(C)(C)C(=O)C(=O)N1CCC[C@H]1C(=O)SCCCc1cccc(Cl)c1` [Compound 54] gave a Ki of 37 nM.

In turn, `CCC(C)(C)C(=O)C(=O)N1CCC[C@H]1C(=O)SCCCc1ccccc1F` [Compound 57] returned a Ki of 57 nM.

`CCC(C)(C)C(=O)C(=O)N1CCC[C@H]1C(=O)SCCCc1cccc(F)c1` [Compound 58] yielded a Ki of 79 nM.

Regarding `CCC(C)(C)C(=O)C(=O)N1CCCCC1C(=O)SCCCCc1ccccc1` (stereo not drawn) [Compound 59], the Ki is 962 nM.

`CCC(C)(C)C(=O)C(=O)N1CCCCC1C(=O)SCCCc1ccccc1` (stereo not drawn) [Compound 60] showed a Ki of 90 nM.

`CCC(C)(C)C(=O)C(=O)N1CCC[C@H]1C(=O)SCCCc1ccccc1Cl` [Compound 61] came in with a Ki of 139 nM.

`CCC(C)(C)C(=O)C(=O)N1CCCCC1C(=O)SCCCc1cccc(F)c1` (stereo not drawn) [Compound 64] gave a Ki of 163 nM.

Staying with this test, now noted: apparent Ki, rotamase inhibition.
`CCC(C)(C)C(=O)C(=O)N1CCCCC1C(=O)SCCCc1ccc2ccccc2c1` [Compound 53, 3-(2-Naphthyl)propyl (2R, S) -1-(3,3-dimethyl-2-oxopentanoyl)-2-piperidinecarbothioate]: the Ki came to 261 nM.

Staying with this test, now noted: apparent Ki, rotamase inhibition; read-out: Ki.
For the compound `CCC(C)(C)C(=O)C(=O)N1CCC[C@H]1C(=O)SCc1csc2ccccc12` [Compound 11, (3-Thioindolyl) methyl (2S) -1-(3,3-dimethyl-1,2-dioxopentyl)-2-pyrrolidinecarbothioate], the Ki turned out to be 299 nM.

In another test the test system is C57 black 6 mice. As to the kind of experiment: In vivo hair generation test, Experiment A (shaved C57 black 6 mice, topical). To be noted: 30 µM topical in 20% propylene glycol, 3 applications over 5 days, after six weeks. An excerpt: Care was taken not to nick or cause abrasion to the underlaying dermal layers. The animals were in anagen growth phase, as indicated by the pinkish color of the skin. […] Hair growth was quantitated by the percent of shaved area covered by new hair growth during this time period.
With `CCC(C)(C)C(=O)C(=O)N1CCC[C@H]1C(=O)OCCCc1cccnc1` [GPI 1046, 3-(3-pyridyl)-1-propyl (2s)-1-(3,3-dimethyl-1,2-dioxopentyl)-2-pyrrolidinecarboxylate], the “hair regrowth in the shaved area” value was “essentially complete hair regrowth”.

The subject of a further test is C57 black 6 mice. As to the kind of experiment: In vivo hair generation test, Experiment B (shaved C57 Black 6 mice, topical, 14 days). The conditions noted are these: one micromole per milliliter topical, three times per week, 14 days after initiation of treatment. How it is done:
Care was taken not to nick or cause abrasion to the underlying dermal layers. The animals were in anagen growth phase when shaved. […] The animals were treated three times per week, and hair growth was evaluated 14 days after initiation of treatment.
For `CCC(C)(C)C(=O)C(=O)N1CCC[C@H]1C(=O)SCCC(c1ccccc1)c1ccccc1` [GPI 1234], the “hair growth (Figure 5, relative hair growth index)” value was “dramatic hair growth”.

For the compound `CCC(C)(C)C(=O)C(=O)N1CCCC[C@H]1C(=O)SCCC(c1ccccc1)c1ccccc1` [GPI 1511], the “hair growth (Figure 5, relative hair growth index)” value is “dramatic hair growth”.
